Structures are written as SMILES.

The species named for the assay is Homo sapiens. Description: Selectivity ratio of relative binding affinity for full-length human estrogen receptor beta to ratio of relative binding affinity for full length human estrogen receptor alpha.
On to `N#CC(c1ccc(O)cc1)C(CF)c1ccc(O)cc1` (stereo unspecified), for which the RBA came out at 21%.

Consider `N#CC(Cc1ccc(O)c(CO)c1)c1ccc(O)cc1` (stereo unspecified), for which the RBA was determined as 19%.

In the case of `N#CC(Cc1ccc(O)c(CCF)c1)c1ccc(O)cc1` (stereo unspecified), the RBA was 58%.

For `N#CC(Cc1ccc(O)c(Cl)c1)c1ccc(O)cc1` (stereo unspecified), the RBA worked out at 112%.

Consider `N#CC(Cc1ccc(O)c(Br)c1)c1ccc(O)cc1` (stereo unspecified), for which the RBA was determined as 108%.

Take `N#CC(Cc1ccc(O)c(O)c1)c1ccc(O)cc1` (stereo unspecified): the RBA is 106%.

Consider `CC(c1ccc(O)cc1)C(C#N)c1ccc(O)cc1` (stereo unspecified), for which the RBA was found to be 11%.

Turning to `N#CC(Cc1ccc(O)c(CCCF)c1)c1ccc(O)cc1` (stereo unspecified), the RBA was determined as 45%.

Consider `N#CC(Cc1ccc(O)c(F)c1)c1ccc(O)cc1` (stereo unspecified), for which the RBA amounted to 272%.

`N#CC(Cc1ccc(O)c(I)c1)c1ccc(O)cc1` (stereo unspecified): the RBA stood at 140%.

With `Cc1cc(CC(C#N)c2ccc(O)cc2)ccc1O` (stereo unspecified), the RBA was found to be 139%.

The values are drawn from ChEMBL document CHEMBL1138623, “Synthesis and evaluation of aryl-substituted diarylpropionitriles, selective ligands for estrogen receptor beta, as positron-emission tomographic imaging agents” (Bioorg Med Chem, 2009).
